Assay results published in patent US20240299483A1, “TARGETS AND BIOMARKERS FOR TUMOR MICROENVIRONMENTS” (The Trustees of Indiana University, priority 2023, published 2024).

Experiments:
[1] = system: PD-L1; experiment: PD-L1 expression in Ly6G+ cells after in vivo CPI-613 treatment, flow cytometry; set-up: species or system mice; conditions: 5 mg/kg on days 0, 2, 4, 7; day 8; PD-L1+ cells in Ly6G+CD11c+ cells
Procedure: FIG. 3J measures PD-L1^+ cells of Ly6G^+ CD11c^+ cells isolated from Lal^+/+ and Lal^−/− mice. Mice received 5 mg/kg CPI-613 on days 0, 2, 4, and 7. On day 8, the percentage of PD-L1^+ cells in Ly6G^+ CD11c^+ cells was measured by flow cytometry analysis.
(§1) Flow Cytometry Analysis For analyses of percentages of CD11b^+Ly6G^+ (integrin alpha M-positive/Ly6G positive) and Ly6G^+Ly6C^+ (Ly6G positive/lymphocyte antigen 6 C1-positive) cells, single cells harvested from the bone marrow of Lal^+/+ and Lal^−/− mice were stained with APC eFluor 780-conjugated, dye, anti-Ly6G antibody (1A8-Ly6g, cat #47-9668-82), FITC (fluorescein isothiocyanate)-conjugated anti-CD11b antibody (M1/70, cat #11-0112-82), and PE (phycocrythrin)-conjugated anti-Ly6C antibody (HK1.4, cat #12-5932-82) at 4° C. for 15 minutes. All antibodies were acquired from eBioscience, San Diego, CA. For analysis of PD-L1 expression in Ly6G^+ cells, cells were stained with APC eFluor 780-conjugated anti-Ly6G antibody, PE-conjugated anti-CD11c (integrin alpha X) antibody (N418, cat #12-0114-82) (acquired from eBioscience), and PE-Cy7 (cyanine 7)-conjugated anti-PD-L1 antibody (10F.9G2, cat #124314) (acquired from Biolegend) at 4° C. for 15 minutes. Cells were washed with PBS, then were ready for flow cytometry analysis.

[2] = system: CD4^+ T cells; experiment: T cell proliferation assay (CFSE-labeled CD4+ T cells co-cultured with pre-treated Ly6G+ cells); type: cell-based, mice; conditions: Ly6G+ cells pre-treated 10 μM, 1 hour; co-culture 4 days; DMSO control
Procedure: (§2) Isolation of Bone Marrow Lymphocyte Antigen 6 Member G—Positive (Ly6G^+) Cell Ly6G^+ cells were isolated by magnetic bead sorting. For CPI-613 (also known as Devimistat; a pyruvate dehydrogenase inhibitor) treatment, freshly isolated Ly6G^+ cells were pre-treated with DMSO or 10 μM CPI-613 at 37° C. for 1 hour, and then co-cultured with Cluster of Differentiation 4 Protein-positive […] (CD4^+ T cells) or co-injected with B16 melanoma cells for further analysis.
T cell Proliferation Assay CD4^+ T cells were isolated from the spleen and labeled with carboxyfluorescein succinimidyl ester (CFSE) as previously described. CFSE-labeled CD4^+ T cells were co-cultured with Ly6G^+ cells in 96-well plates pre-coated with anti-CD3 mAb (2 μg/mL) (145-2C11, cat #553057) and anti-CD28 mAb (5 μg/mL) (37.51, cat #553295) (acquired from BD Biosciences) at 37° C., 5% CO2, for 4 days. The ratio of Ly6G^+ cells to CD4^+ T cells was 1:5. Proliferation of CD4^+ T cells was evaluated as CFSE dilution by flow cytometry analysis.

[3] = system: Ly6G^+ cells; experiment: Reactive oxygen species (ROS) measurement in Ly6G+ cells by flow cytometry; type: cell-based, mice; conditions: CPI-613 treatment; versus Lal+/+ Ly6G+ cells
Procedure: as §2
Reactive Oxygen Species (ROS) Measurement The ROS level in Ly6G^+ cells was measured by flow cytometry as previously described. Ly6G^+ cells from Lal^+/+ and Lal^−/− mice with or without CPI-613 pre-treatment were collected and stained with APC eFluor 780-conjugated anti-Ly6G antibody, FITC-conjugated anti-CD11b antibody and 2 μmol/L 2′, 7′-dichlorofluorescein diacetate (acquired from Invitrogen, Carlsbad, CA) at 37° C. for 30 minutes. After PBS washing, the ROS level in Ly6G^+ cells was analyzed using an LSRII machine.
Small Interfering RNA Transfection Before transfection, Ly6G^+ cells were seeded into 96-well plates at a density of 1×10^6 cells/well. […]

[4] = system: CD11b^+Ly6G^+ cells; experiment: CD11b+Ly6G+ population in bone marrow after CPI-613 injection, flow cytometry; type: in vivo; conditions: Lal−/− mice, 5 mg/kg on days 0, 2, 4, 7; measured day 8; DMSO control
Procedure: Mice received 5 mg/kg CPI-613 (PDH inhibitor) on days 0, 2, 4, and 7. On day 8, the CD11b^+Ly6G^+ population in the bone marrow was determined by flow cytometry. DMSO (dimethyl sulfoxide) was used as a control.
as §1

[5] = system: Lewis lung carcinoma (LLC) cells; experiment: In vitro co-culture of Ly6G+ cells and LLC cells; type: cell-based, murine; conditions: Ly6G+ cells pre-treated 10 μM; co-culture 72 hours
Procedure: (§3) In Vitro Co-Culture of Ly6G^+ and Tumor Cells B16 melanoma or LLC cells were harvested, resuspended, and adjusted to density at 5×10^4 cells/mL. Isolated Ly6G^+ cells with or without 10 μM CPI-613 pre-treatment were prepared at the cell density of 5×10^6 cells/mL. One hundred microliter of Ly6G^+ cells and 100 μL of B16 melanoma/LLC cells were mixed, and seeded into a well of 96-well plates in DMEM supplemented with 10% FBS. Seventy-two hours later, unattached Ly6G^+ cells were removed by washing with PBS, and the number of attached B16 melanoma/LLC cells was counted. Morphologically, Ly6G^+ cells are much smaller than B16 melanoma/LLC cells for exclusion.
(§4) Small Interfering RNA Transfection Before transfection, Ly6G^+ cells were seeded into 96-well plates at a density of 1×10^6 cells/well. For small interfering RNA (siRNA)-mediated gene knockdown, 50 nmol/L of PDH siRNA (containing a mixture of three independent siRNAs targeting different regions of PDH) or control siRNA was transfected into Ly6G^+ cells with DharmaFECT Transfection Reagent I, chemical formulation for transfection, (acquired from Dharmacon) according to the manufacturer's protocol. After 24 hours of transfection, cells were harvested for further analysis.

[6] = system: B16 melanoma cells; experiment: In vitro co-culture of Ly6G+ cells and B16 melanoma cells; type: cell-based, murine; conditions: Ly6G+ cells pre-treated 10 μM; co-culture 72 hours
Procedure: as §3, §4

[7] = system: B16 melanoma cells; experiment: Subcutaneous co-injection of pre-treated Ly6G+ cells with B16 melanoma cells, tumor growth; type: in vivo; conditions: Ly6G+ cells pre-treated 10 μM 1 hour, co-injected with B16 melanoma cells into Lal+/+ recipient mice; tumor size at 10 days
Procedure: Subcutaneous Injection of Tumor Cells into Lal^+/+ Mice To study the effect of Ly6G^+ cells on tumor growth, isolated 1×10^6 Ly6G^+ cells from Lal^+/+ or Lal^−/− mice were pre-treated with DMSO or 10 μM CPI-613 for 1 hour, mixed with 2×10^5 B16 melanoma cells, and the cell mixture was injected subcutaneously at the flank region of Lal^+/+ recipient mice. The tumor growth was monitored twice a weck. The tumor volume (mm^3) was estimated by measuring the maximal length (L) and width (W) of a tumor and calculated using the formula: (length×width^2)/2. For tumor-bearing myeloid-derived suppressor cells (MDSCs) experiments, Lal^+/+ or Lal^−/− mice were injected with 1×10^6 B16 melanoma cells at flank sites on two sides. Fourteen days later, the mice were sacrificed. Tumor tissues were harvested, digested for single cell preparation, and stained for flow cytometry analysis of the CD11b^+Ly6G^+ cells.

[8] = system: lysosomal acid lipase (LAL); experiment: Human leucocytes incubated with LAL inhibitor, MDSC subsets by flow cytometry; type: cell-based; conditions: leucocytes from healthy subjects, 10 μM, 24 hours
Procedure: Human leucocytes from healthy individuals were incubated with 10 μM Lalistat2, an LAL inhibitor (L) or DMSO (S) for 24 hours; control group (C) were not treated. After 24 hours, cells were analyzed by flow cytometry.
Human Blood Samples The blood donor characteristics of the human blood samples of normal subjects and non-small-cell lung cancer (NSCLC, at stage III-IV) patients is described in TABLE 8. NSCLC patients were selected by screening with Programmed death-ligand 1 (PD-L1) Tumor Proportion Score (TPS)≥10%. Both normal subjects and NSCLC patients include male and female, White and African American. To inhibit lysosomal acid lipase (LAL) activity, human blood cells from healthy participants had the red blood cells (RBCs) removed with lysis buffer acquired from Biolegend (San Diego, CA); washed with phosphate buffered saline (PBS) by centrifugation at 240×g for 5 minutes at room temperature; and then incubated with 10 μM LAL inhibitor Lalistat2, acquired from Cayman, Ann Arbor, MI) for 24 hours. As a control, human blood cells were incubated with dimethyl sulfoxide (DMSO).
For flow cytometry analysis of human blood samples, human blood cells had the RBCs removed, washed with PBS, and stained with APC-eFluor 780-conjugated anti-CD11b antibody (ICRF44, cat #47-0118-42), FITC-conjugated anti-CD13 (aminopeptidase N) antibody (WM15, cat #11-0138-42), PE-conjugated anti-CD14 antibody (61D3, cat #12-0149-42), APC-conjugated anti-CD15 (Lewis X) antibody (MMA, cat #17-0158-42), PE-conjugated anti-CD33 antibody (HIM3-4, cat #12-0339-42), PE-Cy7-conjugated anti-HLA-DR (major histocompatibility complex, class II) antibody (L243, cat #25-9952-42) (all acquired from eBioscience) at 4° C. for 15 minutes. Cells were then washed with PBS, fixed with 1% paraformaldehyde, and prepared for flow cytometry analysis. To analyze LAL levels, cells were further fixed and permeabilized using BD Cytofix/Cytoperm Fixation/Permeabilization Kit, cell fixation and permeabilization kit, and incubated with non-fluorescence conjugated anti-LAL antibody at 4° C. overnight. […]

Row | induction of CD11b+CD15+HLA-DR− MDSC subset [8] | percentage of CD11b+CD13+HLA-DR− MDSC subset [8] | percentage of CD11b+CD14+HLA-DR− MDSC subset [8] | Compound | PD-L1 expression in Lal−/− Ly6G+ cells [1] | Lal−/− Ly6G+ cells' suppressive activity on T cell proliferation [2] | overproduction of ROS in Lal−/− CD11b+Ly6G+ cells [3] | Lal−/− CD11b+Ly6G+ cells (percentage in bone marrow) [4] | capability of Lal−/− Ly6G+ cells in promoting tumor cell proliferation, LLC [5] | capability of Lal−/− Ly6G+ cells in promoting tumor cell proliferation, B16 melanoma [6] | capability of Lal−/− Ly6G+ cells in stimulating tumor growth [7]
1 | – | – | – | O=C(O)CCCCC(CCSCc1ccccc1)SCc1ccccc1 (stereo not shown) [CPI-613] | effectively reduced | reversed | significantly reversed | reduced | reduced capabilities | reduced capabilities | reduced capabilities
2 | did not reach statistical significance | increased | increased | O=C(Oc1nsnc1N1CCCCC1)N1CCCCC1 [Lalistat2] | – | – | – | – | – | – | –
